Molecular target: T1, estrogen receptor (Homo sapiens, UniProt P03372)
T1 construct: endogenous in cells; host or cells: ECC-1 cells
T1 sequence (P03372 1-595): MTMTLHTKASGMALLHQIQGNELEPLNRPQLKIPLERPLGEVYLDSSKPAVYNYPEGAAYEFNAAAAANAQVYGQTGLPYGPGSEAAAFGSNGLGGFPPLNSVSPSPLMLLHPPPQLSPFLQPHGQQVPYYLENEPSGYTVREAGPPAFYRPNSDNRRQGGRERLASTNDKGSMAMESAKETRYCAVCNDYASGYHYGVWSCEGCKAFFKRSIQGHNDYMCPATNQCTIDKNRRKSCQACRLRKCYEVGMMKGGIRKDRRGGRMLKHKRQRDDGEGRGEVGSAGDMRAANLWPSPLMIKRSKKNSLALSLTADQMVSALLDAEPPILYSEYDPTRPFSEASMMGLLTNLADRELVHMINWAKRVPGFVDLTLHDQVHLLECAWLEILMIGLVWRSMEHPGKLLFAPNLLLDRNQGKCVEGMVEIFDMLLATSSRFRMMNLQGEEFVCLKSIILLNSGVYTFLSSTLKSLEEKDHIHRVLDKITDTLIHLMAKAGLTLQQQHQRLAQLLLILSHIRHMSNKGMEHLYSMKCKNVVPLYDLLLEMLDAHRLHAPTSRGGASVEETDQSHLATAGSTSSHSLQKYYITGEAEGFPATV
Test: AP (alkaline phosphatase) assay in ECC-1 cells, agonist mode and antagonist mode
Format: cell-based
Conditions: 3 days, absence of E2 (agonist mode) or 500 pM E2 (antagonist mode), AP activity normalized to 500 pM E2 alone
Method: ECC-1 cells were trypsinized and resuspended in hormone-depleted media and plated at a density of 15 k cells per well into a 96-well plate for at least 4 hours. Cells were treated with test compounds in the absence of E2 (for agonist mode) or in the presence of 500 pM E2 (for antagonist mode) for 3 days and plates were subsequently frozen at −80° C. Thawed plates were incubated with a chromogenic substrate of AP, p-nitrophenyl phosphate (Thermo Fisher Scientific), for 40 minutes at 42° C., and absorbances were read at 405 nm. AP activity was normalized to the activity of 500 pM E2 alone.
The compound numbers correspond to the compound numbers of Table 1 and 2. Compounds having an activity designated as “+” provided estrogen receptor agonism having (i) at least 80% increase in the E2-normalized signal in the AP assay (agonist mode) and (ii) no more than 80% reduction in the E2-normalized signal in the AP assay (antagonist mode). Compounds having an activity designated as “++” provided estrogen receptor antagonism having (i) between 10% and 80% increase in the E2-normalized signal in the AP assay (agonist mode) and (ii) between 10% and 80% reduction in the E2-normalized signal in the AP assay (antagonist mode).

Compound | Activity (estrogen receptor modulation, agonism and antagonism)
C[C@@H]1Cc2c([nH]c3ccccc23)[C@@H](c2cnc(O[C@H]3CCCN(CCCF)C3)s2)N1CC(F)(F)CO [Example I-38] | + (estrogen receptor agonism having (i) at least 80% increase in the E2-normalized signal in the AP assay (agonist mode) and (ii) no more than 80% reduction in the E2-normalized signal in the AP assay (antagonist mode))
C[C@@H]1Cc2c([nH]c3ccccc23)[C@@H](c2sc(O[C@@H]3CCN(CCCF)C3)cc2F)N1CC(F)(F)CO [Example I-27, 2,2-difluoro-3-[(1S,3R)-1-[3-fluoro-5-[(3R)-1-(3-fluoropropyl)pyrrolidin-3-yl]oxy-2-thienyl]-3-methyl-1,3,4,9-tetrahydropyrido[3,4-b]indol-2-yl]propan-1-ol] | +++ (estrogen receptor antagonism (i) with pIC50 greater than 7.5 and at least a 10% reduction in the E2-normalized signal in the AP assay (antagonist mode); and no more than 10% increase in E2-normalized signal in the AP assay (agonist mode))
C[C@@H]1Cc2c([nH]c3ccccc23)[C@@H](c2ccc(O[C@@H]3CCN(CCCF)C3)s2)N1CC(F)(F)F [Example I-20, (1S,3R)-1-[5-[(3R)-1-(3-fluoropropyl)pyrrolidin-3-yl]oxy-2-thienyl]-3-methyl-2-(2,2,2-trifluoroethyl)-1,3,4,9-tetrahydropyrido[3,4-b]indole] | ++ (estrogen receptor antagonism having (i) between 10% and 80% increase in the E2-normalized signal in the AP assay (agonist mode) and (ii) between 10% and 80% reduction in the E2-normalized signal in the AP assay (antagonist mode))
CCCN1CC[C@@H](Oc2ccc([C@@H]3c4[nH]c5ccccc5c4C[C@@H](C)N3CC(C)(C)F)s2)C1 [Example I-10, (1S,3R)-2-(2-fluoro-2-methyl-propyl)-3-methyl-1-[5-[(3R)-1-propylpyrrolidin-3-yl]oxy-2-thienyl]-1,3,4,9-tetrahydropyrido[3,4-b]indole] | + (estrogen receptor agonism having (i) at least 80% increase in the E2-normalized signal in the AP assay (agonist mode) and (ii) no more than 80% reduction in the E2-normalized signal in the AP assay (antagonist mode))
C[C@@H]1Cc2c([nH]c3ccccc23)[C@@H](c2ccc(O[C@@H]3CCN(CCC(F)F)C3)s2)N1CC(C)(C)F [Example I-15, (1S,3R)-1-[5-[(3R)-1-(3,3-difluoropropyl)pyrrolidin-3-yl]oxy-2-thienyl]-2-(2-fluoro-2-methyl-propyl)-3-methyl-1,3,4,9-tetrahydropyrido[3,4-b]indole] | + (estrogen receptor agonism having (i) at least 80% increase in the E2-normalized signal in the AP assay (agonist mode) and (ii) no more than 80% reduction in the E2-normalized signal in the AP assay (antagonist mode))
C[C@@H]1Cc2c([nH]c3ccccc23)[C@@H](c2ccc(OC3CN(CCCF)C3)s2)N1CC(F)(F)F [Example I-21, (1S,3R)-1-[5-[1-(3-fluoropropyl)azetidin-3-yl]oxy-2-thienyl]-3-methyl-2-(2,2,2-trifluoroethyl)-1,3,4,9-tetrahydropyrido[3,4-b]indole] | ++ (estrogen receptor antagonism having (i) between 10% and 80% increase in the E2-normalized signal in the AP assay (agonist mode) and (ii) between 10% and 80% reduction in the E2-normalized signal in the AP assay (antagonist mode))
C[C@@H]1Cc2c([nH]c3ccccc23)[C@@H](c2ccc(O[C@H]3CCN(CCCF)C3)s2)N1CC(C)(C)F [Example I-4, (3S)-3-({5-[(1S,3R)-2-(2-fluoro-2-methylpropyl)-3-methyl-1H,2H,3H,4H,9H-pyrido[3,4-b]indol-1-yl]thiophen-2-yl}oxy)-1-(3-fluoropropyl)pyrrolidine] | +++ (estrogen receptor antagonism (i) with pIC50 greater than 7.5 and at least a 10% reduction in the E2-normalized signal in the AP assay (antagonist mode); and no more than 10% increase in E2-normalized signal in the AP assay (agonist mode))
